Laboratory results published in patent US10246442B2, “4-Aminoquinazolin compounds as prolyl hydroxylase inhibitors” (JANSSEN PHARMACEUTICA NV, priority 2011, dated 2019).

What was measured:
PHD2181-417 = PHD2181-417 (Homo sapiens (Human), UniProt Q9GZT9); experiment: PHD enzymatic assay ([14C]-succinic acid production); type: biochemical; conditions: purified PHD2181-417, HIF-1α peptide substrate, 30 min pre-incubation; average of results
Method: Expression and Purification of PHD2181-417
The human PHD2 expression construct containing amino acids 181-417 of GenBank Accession ID NM_022051 was cloned into a pBAD vector (Invitrogen), incorporating both an N-terminal histidine tag and a Smt3-tag, both of which are cleaved by Ulp1. Protein production was achieved by expression in BL21 cells grown in Terrific Broth containing 100 μg/ml ampicillin. Cell cultures were inoculated at 37° C. and grown to an OD600 of 0.8. Cultures were induced with 0.1% arabinose and grown overnight at 20° C. with continuous shaking at 225 rpm. Cells were then harvested by centrifugation and stored at −80° C. Cell pellets were suspended in Buffer A (50 mM Tris-HCl pH 7.2, 100 mM NaCl, 100 mM L-arginine, 1 mM TCEP, 0.05% (w/v) NP-40, 50 mM imidazole) followed by the addition of lysozyme and benzonase. Cells were lysed by sonication and the lysate was cleared by centrifugation (15,000 rpm, 90 min, 4° C.). The protein was purified by nickel affinity chromatography using a HisTrap Crude FF column (GE Healthcare). Samples were eluted in Buffer A with a 50-200 mM imidazole gradient. Cleavage of the Smt tag with Ulp1 protease was achieved via overnight incubation with dialyzing against Buffer A. The PHD2181-417 sample was then passed over a second HisTrap Crude FF column (GE Healthcare) to remove uncleaved protein. The flow-through was then dialyzed into 50 mM MES pH 6.0, 1 mM TCEP, 5 mM NaCl for ion exchange chromatography on a HiTrap SP Cation Exchange column (GE Healthcare). The PHD2181-417 protein was eluted with a 0-0.2 M NaCl gradient. Fractions were pooled for further purification by size exclusion chromatography over a Superdex 75 Size Exclusion Column (GE Healthcare). Final protein was concentrated to 4 mg/ml and dialyzed in 10 mM PIPES pH 7.0, 100 mM NaCl, 0.5 mM TCEP.
(10 μM, California Peptide Research Inc., Napa, Calif.), and [5-^14C]-2-oxoglutaric acid (50 mCi/mmol, Moravek Chemicals, Brea, Calif.) in reaction buffer (40 mM Tris-HCl, pH 7.5, 0.4 mg/ml catalase, 0.5 mM DTT, 1 mM ascorbate) for 10 minutes. Compounds were pre-incubated for 30 min before starting the reaction (all test compounds were dissolved at 10 mM in 100% DMSO (w/v) and were tested with final compound concentrations at 100 μM in 1% DMSO (w/v)). The reaction was stopped by addition of 50 μl of 70 mM H3PO4 and 50 μl of 500 mM NaH2PO4, pH 3.2. Detection of [^14C]-succinic acid was achieved by separating from [5-^14C]-2-oxoglutaric acid by incubating the reaction mixture with 100 μl of 0.16 M DNP prepared in 30% perchloric acid. Next, 50 μl of unlabeled 20 mM 2-oxoglutaric acid/20 mM succinic acid, serving as carrier for the radioactivity, was added to the mixture, and was allowed to proceed for 30 minutes at room temperature. The reaction was then incubated with 50 μl of 1 M 2-oxoglutaric acid for 30 additional minutes at room temperature to precipitate the excess DNP. The reaction was then centrifuged at 2800×g for 10 minutes at room temperature to separate [^14C]-succinic acid in the supernatant from the precipitated [^14C]-dinitrophenylhydrazone. Fractions of the supernatant (400 μI) were counted using a beta counter (Beckman Coulter, Fullerton, Calif.). Inhibition of PHD2181-417 activity was measured as a decrease in succinic acid production. The IC50 values were estimated by fitting the data to a three-parameter logistic function using GraphPad Prism, version 4.02 (Graph Pad Software, San Diego, Calif.).

[1] = system: Erythropoietin secretion, Hep-3B cells; experiment: Cellular assay: EPO secretion in Hep-3B cells; type: cell-based; conditions: Homo sapiens, Hep3B, 100 μM compound, 24 hours, percent of EPO secretion relative to assay control compound 7-[(4-Chloro-phenyl)-(5-methyl-isoxazol-3-ylamino)-methyl]-quinolin-8-ol, read-out: Cellular % EPO Stimulation
Method: Hep-3B cells (ATCC, Manassas, Va.) were plated in 96-well plates at 20,000 cells per well in 100 μl of DMEM containing 10% fetal bovine serum, 1% non-essential amino acids, 50 IU/mL of penicillin and 50 μg/mL of streptomycin (all cell culture reagents from Invitrogen, Carlsbad, Calif.). Twenty-four hours after plating, compounds were added and incubated for an additional 24 hours. All compounds were tested with final compound concentrations at 100 μM. Fifty microliters of the supernatant was then transferred to a human Hypoxia assay kit (Meso-Scale Discovery, Gaithersburg, Md.). Erythropoietin in the supernatant was detected according to the manufacturer's instructions as follows. EPO detection plates were blocked with 3% BSA in PBS overnight and 50 μl of the supernatant was incubated at room temperature in an orbital shaker for 2 h. Twenty-five microliters of 0.5 μg/ml anti-EPO detection antibody was added for 2 hours at room temperature in an orbital shaker. After 3 washes in PBS, 150 μl of 1× read buffer is added and the plate is then read on the MSD SECTOR instrument. Data was analyzed by determining the percent of EPO secretion in the presence of 100 μM compound relative to an assay control compound, 7-[(4-Chloro-phenyl)-(5-methyl-isoxazol-3-ylamino)-methyl]-quinolin-8-ol.

Chain of PHD2181-417 (Q9GZT9 181-417): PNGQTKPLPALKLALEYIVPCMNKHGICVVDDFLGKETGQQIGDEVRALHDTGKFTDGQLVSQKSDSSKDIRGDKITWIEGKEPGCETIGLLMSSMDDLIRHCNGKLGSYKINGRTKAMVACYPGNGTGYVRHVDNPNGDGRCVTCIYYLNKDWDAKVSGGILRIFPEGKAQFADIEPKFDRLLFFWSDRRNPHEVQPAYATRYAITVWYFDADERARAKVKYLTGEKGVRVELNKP

SMILES	Enzyme pIC50 (PHD2181-417)	activation at 100 µM [1] [%]
Cc1cccc(C)c1CNc1nc(-n2cc(C(=O)O)cn2)nc2ccc(C3CCCCC3)cc12 [Example 23, 1-[6-Cyclohexyl-4-(2,6-dimethyl-benzylamino)-quinazolin-2-yl]-1H-pyrazole-4-carboxylic acid]	–	7
Cc1cccc(C)c1Oc1cc2c(N3CCCC3)nc(-n3cc(C(=O)O)cn3)nc2cc1F [Example 5, 1-[6-(2,6-Dimethyl-phenoxy)-7-fluoro-4-pyrrolidin-1-yl-quinazolin-2-yl]-1H-pyrazole-4-carboxylic acid]	7.4	25
Cc1cccc(C)c1Oc1cc2c(N)nc(-n3cc(C(=O)O)cn3)nc2cc1F [Example 1, 1-[4-Amino-6-(2,6-dimethyl-phenoxy)-7-fluoro-quinazolin-2-yl]-1H-pyrazole-4-carboxylic acid]	–	51
CC(C)c1cc2c(N3CCCC3)nc(-n3cc(C(=O)O)cn3)nc2cc1Cl [Example 163, 1-(7-chloro-4-(pyrrolidin-1-yl)-6-isopropylquinazolin-2-yl)-1H-pyrazole-4-carboxylic acid]	7.3	26
O=C(O)c1cnn(-c2nc(N3CCOCC3)c3cc(OC4CCCCC4)ccc3n2)c1 [Example 172, 1-(6-(cyclohexyloxy)-4-morpholinoquinazolin-2-yl)-1H-pyrazole-4-carboxylic acid]	6.4	18
Cc1cccc(C)c1Oc1cc2c(Nc3ccccc3Cl)nc(-n3cc(C(=O)O)cn3)nc2cc1F [Example 7, 1-[4-(2-Chloro-phenylamino)-6-(2,6-dimethyl-phenoxy)-7-fluoro-quinazolin-2-yl]-1H-pyrazole-4-carboxylic acid]	–	13
Cc1cccc(C)c1Oc1cc2c(N(C)C)nc(-n3cc(C(=O)O)cn3)nc2cc1F [Example 3, 1-[4-Dimethylamino-6-(2,6-dimethyl-phenoxy)-7-fluoro-quinazolin-2-yl]-1H-pyrazole-4-carboxylic acid]	–	68
O=C(O)c1cnn(-c2nc(N3CCCC3)c3cc(OC4CCCCC4)ccc3n2)c1 [Example 175, 1-(6-(cyclohexyloxy)-4-(pyrrolidin-1-yl)quinazolin-2-yl)-1H-pyrazole-4-carboxylic acid]	–	46
CCN(CC)c1nc(-n2cc(C(=O)O)cn2)nc2ccc(OC3CCCCC3)cc12 [Example 174, 1-(6-(cyclohexyloxy)-4-(diethylamino)quinazolin-2-yl)-1H-pyrazole-4-carboxylic acid]	–	35
Cc1cccc(C)c1Oc1cc2c(NCC3CC3)nc(-n3cc(C(=O)O)cn3)nc2cc1F [Example 15, 1-((4-Cyclopropanemethylamino)-6-(2,6-dimethylphenoxy)-7-fluoroquinazolin-2-yl)-1H-pyrazole-4-carboxylic acid]	–	64
O=C(O)c1cnn(-c2nc(N3CCCC3)c3cc(OC4CCCCC4)c(Cl)cc3n2)c1 [Example 139, 1-(7-chloro-6-(cyclohexyloxy)-4-(pyrrolidin-1-yl)quinazolin-2-yl)-1H-pyrazole-4-carboxylic acid]	7.1	–
O=C(O)c1cnn(-c2nc(NC3CC3)c3cc(OC4CCCCC4)c(Cl)cc3n2)c1 [Example 141, 1-(7-chloro-6-(cyclohexyloxy)-4-(cyclopropylamino)quinazolin-2-yl)-1H-pyrazole-4-carboxylic acid]	7.0	–

Continued, in another order:

Enzyme pIC50 (PHD2181-417)	SMILES	activation at 100 µM [1] [%]
6.8	CC(C)c1ccc2nc(-n3cc(C(=O)O)cn3)nc(N3CCCC3)c2c1 [Example 187, 1-(6-isopropyl-4-(pyrrolidin-1-yl)quinazolin-2-yl)-1H-pyrazole-4-carboxylic acid]	28
7.4	CN(C)c1nc(-n2cc(C(=O)O)cn2)nc2ccc(OC3CCCCC3)cc12 [Example 173, 1-(6-(cyclohexyloxy)-4-(dimethylamino)quinazolin-2-yl)-1H-pyrazole-4-carboxylic acid]	62
7.4	N#CC1CCN(c2nc(-n3cc(C(=O)O)cn3)nc3ccc(Oc4ccc(Cl)cc4)cc23)CC1 [Example 65, 1-(6-(4-Chlorophenoxy)-4-(4-cyanopiperidin-1-yl)quinazolin-2-yl)-1H-pyrazole-4-carboxylic acid]	77
7.3	CCN(CC)c1nc(-n2cc(C(=O)O)cn2)nc2ccc(C3CCCCC3)cc12 [Example 27, 1-(6-Cyclohexyl-4-(diethylamino)quinazolin-2-yl)-1H-pyrazole-4-carboxylic acid]	45
7.5	CCN(CC)c1nc(-n2cc(C(=O)O)cn2)nc2cc(Cl)c(OC3CCCCC3)cc12 [Example 138, 1-(7-chloro-6-(cyclohexyloxy)-4-(diethylamino)quinazolin-2-yl)-1H-pyrazole-4-carboxylic acid]	–
7.2	CCN(C)c1nc(-n2cc(C(=O)O)cn2)nc2ccc(Cc3ccccc3)cc12 [Example 183, 1-(6-benzyl-4-(ethyl(methyl)amino)quinazolin-2-yl)-1H-pyrazole-4-carboxylic acid]	–
7.1	O=C(O)c1cnn(-c2nc(NC3CC3)c3cc(Cc4ccccc4)ccc3n2)c1 [Example 182, 1-(6-benzyl-4-(cyclopropylamino)quinazolin-2-yl)-1H-pyrazole-4-carboxylic acid]	–
7.1	O=C(O)c1cnn(-c2nc(N3CCCC3)c3cc(Cc4ccccc4)ccc3n2)c1 [Example 181, 1-(6-benzyl-4-(pyrrolidin-1-yl)quinazolin-2-yl)-1H-pyrazole-4-carboxylic acid]	–
7.1	CCN(CC)c1nc(-n2cc(C(=O)O)cn2)nc2ccc(Cc3ccccc3)cc12 [Example 180, 1-(6-benzyl-4-(diethylamino)quinazolin-2-yl)-1H-pyrazole-4-carboxylic acid]	–
6.5	O=C(O)c1cnn(-c2nc(N3CCOCC3)c3cc(Cc4ccccc4)ccc3n2)c1 [Example 178, 1-(6-benzyl-4-morpholinoquinazolin-2-yl)-1H-pyrazole-4-carboxylic acid]	–
7.1	CN(C)c1nc(-n2cc(C(=O)O)cn2)nc2ccc(Cc3ccccc3)cc12 [Example 179, 1-(6-benzyl-4-(dimethylamino)quinazolin-2-yl)-1H-pyrazole-4-carboxylic acid]	–
